Reference: patent US5661185A, “Melatonergic agents” (Bristol-Myers Squibb Co., priority 1995, dated 1997)

Tests used:
[1] = tested on: forskolin-stimulated accumulation of cAMP; experiment: Cyclic AMP accumulation in intact cells (block of forskolin-stimulated accumulation of cAMP); format: cell-based; conditions: for EC50: 10 min, 37° C.; for Emax: relative to melatonin, read-out: I.A. (Intrinsic Activity) = Emax (experimental compound)/Emax (melatonin)
Description: Further, the compounds are agonists as determined by their ability, like melatonin, to block the forskolin-stimulated accumulation of cAMP in certain cells.
Measurement of Functional Activity
Cyclic AMP Accumalation in Intact Cells: Melatonin
Remove media from cell flask and wash with Hank's salt solution or PBS as appropriate. Detach cells from flask using whatever means are used when splitting. Add enough media so that the concentration of cells is 4×10^5 /ml when counted with a hemocytometer (40 cells in the center square). This concentration of cells can Vary depending on the ultimate cAMP response of the type of cells used. Also, dialyzed fetal bovine serum (FBS) or heat inactivated FBS should be used in the-media when plating the cells in case endogenous substances are present in the FBS that might interfere with the test. Add 1 ml of cell suspension to each well (4×10^5 cells/well), then 2 mls of media and incubate cells overnight.
SOLUTIONS needed for cyclase:
1. Stock solution: plain media (no serum or additives) +20mM HEPES. (500 ml bottle media+10 mls of 1M HEPES GIBCO stock). This solution can be refrigerated and reused.
2. IBMX solution: media/HEPES+1 mM IBMX. (50 mls+11.1 mg IBMX, IBMX mw=222.2). This solution can be refrozen.
3. Assay solution: 90% stock solution+10% IBMX solution. Figure out the volume of solution needed for the assay. Each well gets 3 mls of assay solution for a preincubation and 3 mls for the actual assay, therefore, 6 mls/well. Each test condition is done in triplicate.
a) Basal 7 mls assay solution +[…]
b) Forskolin Stimulation: […]: 7 mls assay solution +[…] (stock solution in freezer, in DMSO)
c) Forskolin+competitor (melatonin): […]: 7 mls assay solution +[…]+desired concentration of competitor (melatonin). Solutions b) and c) can be combined when adding forskolin, then split before adding competitor.
All solutions should be warmed to 37° C. All test conditions are done in triplicate. Plates with cells are kept in a shallow 37° C. water bath throughout the reaction. Remove media from the wells and add 3 ml of preincubation media. After 10 min, remove that solution and add 3 mls of drug solution. After 10 min the media is removed and reaction stopped with 1 ml 0.1N HCl. Staggering the incubation is recommended. The preincubation step can be eliminated if the cells don't adhere well to the plate or the plates can be pretreated with extracellular matrix such as poly-D-lysine. Let samples set for at least an hour at room temperature. Remove 1 ml from dish and put into a microfuge tube. Do a 3 min spin to remove floating cells. Dilute 1:100 for RIA (this dilution will vary depending on the concentration curve of the RIA kit and the cAMP response and concentration of the cells). Do radioimmunoassay (Amersham: Cat.no. RPA.509).

[2] = tested on: [^125 I]-2-iodomelatonin binding; conditions: comparative study; Copinga et al, J.Med. Chem., 1993, 36, 2891; cited from earlier work
rats = conditions: exogenous melatonin administration, Cassone, et al., 1986; cited from earlier work

Work on `CCCC(=O)NCCCc1cccc(OC)c1` [Example 2, N-[3-(3-Methoxyphenyl)propyl]butanamide] yielded an EC50 [1] of 4.9 nM and an Emax [1] of 95%.
Work on `COc1ccc(F)c(/C=C\CNC(=O)C(C)C)c1` [Example 7, cis-N-[3-(2-Fluoro-5-methoxyphenyl)-2-propenyl]-2-methylpropanamide] yielded an EC50 [1] of 120 nM and an Emax [1] of 120%.
Compound `COc1cc(CCCNC(=O)C2CC2)ccc1Cl` [Example 30, N-[3-(4-Chloro-3-methoxyphenyl)propyl]-cyclopropane carboxamide] has an EC50 [1] of 3.4 nM and an Emax [1] of 98%.
In the case of `COc1cccc(CCNC(C)=O)c1` [compound 10], the “[125I]-2-iodomelatonin binding properties, in words” value [2] is listed as “markedly inferior”.
In the case of `COc1ccc2[nH]cc(CCNC(C)=O)c2c1` [melatonin, N-acetyl-5-methoxytryptamine], the “synchronization of circadian rhythms” value (rats) is given as “found to synchronize circadian rhythms in rats”.
